{"source": "patent US9943504B2", "about": "“Arginine methyltransferase inhibitors and uses thereof” (Epizyme, Inc., priority 2013, dated 2018)", "target": "T1, human PRMT6 (Homo sapiens, UniProt Q96LA8)", "T1 construct": "Flag-PRMT6-His was eluted with 200 ug/ml FLAG peptide in the same buffer; made in house; host or cells: HEK 293F cells (BacMam baculovirus)", "T1 sequence (Q96LA8 with tags, fused parts or gaps)": "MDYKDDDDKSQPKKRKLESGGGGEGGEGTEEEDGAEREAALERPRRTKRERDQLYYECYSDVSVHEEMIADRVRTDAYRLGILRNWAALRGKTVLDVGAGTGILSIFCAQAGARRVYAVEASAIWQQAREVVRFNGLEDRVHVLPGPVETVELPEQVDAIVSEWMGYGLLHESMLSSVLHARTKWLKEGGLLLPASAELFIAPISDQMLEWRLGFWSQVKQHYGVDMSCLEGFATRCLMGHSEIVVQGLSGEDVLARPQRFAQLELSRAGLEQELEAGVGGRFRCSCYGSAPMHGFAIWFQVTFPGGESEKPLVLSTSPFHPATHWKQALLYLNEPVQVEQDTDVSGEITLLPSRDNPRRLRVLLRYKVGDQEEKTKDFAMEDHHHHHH", "assay": "PRMT6 Biochemical Assay", "settings": "biochemical evaluation, peptide substrate", "from_the_text": "S-adenosylmethionine (SAM), S-adenosylhomocysteine (SAH), bicine, Tween20, dimethylsulfoxide (DMSO), bovine skin gelatin (BSG), sodium butyrate and Tris(2-carboxyethyl)phosphine hydrochloride solution (TCEP) were purchased from Sigma-Aldrich at the highest level of purity possible. ^3H-SAM was purchase from American Radiolabeled Chemicals with a specific activity of 80 Ci/mmol. 384-well streptavidin Flashplates were purchased from PerkinElmer.\nPeptide representative of human histone H4 residues 36-50 was synthesized with an N-terminal linker-affinity tag motif and a C-terminal amide cap by 21st Century Biochemicals. The peptide was purified by high-performance liquid chromatography (HPLC) to greater than 95% purity and confirmed by liquid chromatography mass spectrometry (LC-MS). The sequence was Biot-Ahx-[…]-amide and contained a monomethylated lysine at position 44 (SEQ ID NO.: 5). […]\nThe assays were all performed in a buffer consisting of 20 mM Bicine (pH=7.6), 1 mM TCEP, 0.005% BSG, and 0.002% Tween 20, prepared on the day of use. […] The plates were then read in a PerkinElmer TopCount plate reader to measure the quantity of ^3H-labeled peptide bound to the Flashplate surface, measured as disintegrations per minute (dpm) or alternatively, referred to as counts per minute (cpm). […]"}
{"smiles": "CN(CCN)Cc1n[nH]c2cccc(OCc3ccccc3)c12", "note": "[Compound 1]", "values": [{"measurement": "IC50", "value": "≤ 100", "unit": "nM"}]}
